Laboratory results published in publication PMC4667898, “Antibody Binding Selectivity: Alternative Sets of Antigen Residues Entail High-Affinity Recognition” (PLoS ONE, 2015).

Tested on: scFv1F4-QL34S
Experiment: PEPperCHIP peptide array, spot fluorescence after staining with DyLight680-labeled scFv
Type: binding
Procedure: ScFv1F4-QL34S labeling with DyLight680, peptide array synthesis and binding detection were performed by PEPperPRINT GmbH (PEPperCHIP® Platform Technology, Heidelberg, Germany). The permutation scans were carried out on the WT decapeptide ^6TAMFQDPQER^15 and on its variants. In a permutation scan, the effect on binding of replacing each of the ten peptide positions by all amino-acids except cysteine is analyzed, which requires the synthesis of 190 spot peptides per starting peptide (19 amino-acids at 10 positions). Two arrays were prepared, each containing the permutation analysis of the WT peptide and of 19 variants. All peptides were synthesized in duplicate (7,600 peptide spots per array). The peptide arrays were stained with the DyLight680-labeled scFv1F4-QL34S. The permutation scans of the WT peptide and of variant ^6TAMFQDPFER^15 are highlighted by white frames. The staining pattern of array A (S1 Fig) was published previously.
The objective was to investigate whether a starting amino-acid replacement modifies the effect on binding of amino-acid changes at neighboring positions. For example the effect of a deleterious starting change could be compensated by a replacement elsewhere. Residue interdependences may also be found in the case of non-deleterious starting replacements. They can be identified by comparing the permutation patterns of the WT and variant peptides. Arrays A [28] (S1 Fig) and B (Fig 1) each contained the permutation scans of the WT decapeptide ^6TAMFQDPQER^15 and of nineteen variants. Data recorded for the WT and 14 variant peptides of array A were described previously. The data presented here include all permutation scans in array B (WT and 19 variants), together with those of 5 variants in array A. One of these was performed twice in array A (peptide ^6TRMFQDVQER^15). Therefore the data include the permutations scans of the WT and of 23 variant decapeptides (Table 1), each of them being recorded at least in duplicate.
The repeatability of fluorescence measurements can be assessed because: i/ all peptides were synthesized in duplicate (Fig 1), ii/ the duplicated scan of peptide ^6TRMFQDVQER^15 was repeated in array A and iii/ several peptides occur repeatedly within a same or in different families. Array B contained 3,222 different peptides, with 105 peptides repeated between 6 and 46 times.
The signal intensity ranges differed in the two arrays: 6,800 and 18,100 for the scFv—WT decapeptide interaction in arrays A and B, respectively (Table 1). However normalization of the intensity values with respect to the mean value of the scFv1F4-WT peptide intensity in each panel, produced well-superimposed patterns (Fig 2). […] In addition, assuming that T6 is not part of the epitope, the variability observed for this position (standard deviation = 0.12) provides insight into the statistical significance of the normalized intensities.

[1] = array B, mean intensity relative to WT decapeptide of array B
[2] = array A, mean intensity relative to WT decapeptide of array A

| Sequence | % of WT signal [1] | further results |
| --- | --- | --- |
| TAMFQDPYER [starting variant of the WT decapeptide on array B] | 37% | – |
| TAMFQDVQER [starting variant of the WT decapeptide on array B] | 16% | – |
| TAMFADPQER [starting variant of the WT decapeptide on array B] | 2% | – |
| TAMFQDVFER [starting variant of the WT decapeptide on array A] | – | % of WT signal [2]: 14%; % of WT signal (array A, mean intensity relative to WT decapeptide of array A, listed as P12V-Q13F): exceeded 10% |
| TAMFQDPQEA [starting variant of the WT decapeptide on array B] | 6% | – |
| TAMFQDPQER [WT decapeptide, residues 6-15 of HPV16-E6 oncoprotein, array-synthesized] | 100% | – |
| TAMFQRAQER [starting variant of the WT decapeptide on array B] | 3% | – |
| TAMFQDQQER [starting variant of the WT decapeptide on array B] | 5% | – |
| TQMFQDPYER [starting variant of the WT decapeptide on array A] | – | % of WT signal [2]: 23%; % of WT signal (array A, mean intensity relative to WT decapeptide of array A, listed as A8Q-Q13Y): exceeded 10% |
| TAMLADPQER [starting variant of the WT decapeptide on array B] | 3% | – |
| TAMFQDYQER [starting variant of the WT decapeptide on array B] | 7% | averaged fluorescence signal as % of that recorded with the WT peptide (array not stated at the place (arrays A and B)): < 10% |
| TAMLQDPQER [starting variant of the WT decapeptide on array B] | 3% | – |
| TAMFQSPYER [starting variant of the WT decapeptide on array A] | – | % of WT signal [2]: 21%; % of WT signal (array A, mean intensity relative to WT decapeptide of array A, listed as D11S-Q13Y): exceeded 10% |
| TAMFQDPFER [starting variant of the WT decapeptide on array B] | 68% | – |
| TAMFQDHQER [starting variant of the WT decapeptide on array B] | 4% | – |
| TAMDQDPQER [starting variant of the WT decapeptide on array B] | 3% | – |
| TRMFQDVQER [starting variant of the WT decapeptide on array A] | – | % of WT signal [2]: 5% |
| TAMFQDPQEQ [starting variant of the WT decapeptide on array B] | 24% | – |
| TGSFQRASFM [starting variant of the WT decapeptide on array B] | 2% | – |
| TAMFQDVYER [starting variant of the WT decapeptide on array B] | 16% | % of WT signal (array B, mean intensity relative to WT decapeptide of array B, listed as P12V-Q13Y): exceeded 10% |
| TAMFKDPQER [starting variant of the WT decapeptide on array B] | 2% | – |
| TGSFQDPQER [starting variant of the WT decapeptide on array B] | 66% | % of WT signal (array B, mean intensity relative to WT decapeptide of array B, listed as A7G-M8S): exceeded 10% |
| TAMFQDPSFM [starting variant of the WT decapeptide on array B] | 2% | – |
| TAMFQTPQER [starting variant of the WT decapeptide on array B] | 3% | – |
